In US11172676B2, “Antibacterial resin composition” (TOYO SEIKAN GROUP HOLDINGS, LTD., priority 2011, dated 2021):

Settings: JIS Z 7260-107

Question: With `O=C1NS(=O)(=O)c2ccccc21.[Ag]` [saccharin silver] as the compound, how does the “silver concentrations eluted out in 1-octanol or in water (hydrophilic and oleophilic property)” value read?
Answer: The value was “hydrophilic property and oleophilic property which are both superior to those of silver stearate, phthalazone silver or benzotriazole silver”.
